Assay: solubility test of crystalline forms in 0.1M HCl (Chinese Pharmacopoeia 2010)
Type: physicochemical
Details: 300 mg sample in 6 mL 0.1M HCl, 25° C.±2° C., 30 minutes, observed with eyes
Protocol: The solubility of crystalline forms A, B, C and D was measured in accordance with the solubility test described in “Chinese Pharmacopoeia 2010”, Topic and Requirement 15. A crystalline form of azilsartan was grinded into powder. The powder (300 mg) was added to 6 ml of 0.1M HCl as the solvent at 25° C.±2° C. […] The total test time was 30 minutes. The solid was deemed as dissolved when no solid was detected in the mixture by human eyes. The solubility data of crystalline forms A, B, C and D of azilsartan are as shown below.

- Result (solubility): dissolved
Structure (SMILES): CCOc1nc2cccc(C(=O)O)c2n1Cc1ccc(-c2ccccc2-c2noc(=O)[nH]2)cc1 [Form D]

Reference: US9174973B2, “Crystalline forms of azilsartan and preparation and uses thereof” (SUNSHINE LAKE PHARMA CO., LTD., priority 2011, dated 2015)
